What was measured:
Assay in all cases: Antimicrobial screening, agar dilution method
Assay type in all cases: cell-based
Conditions in all cases: after 10, 20, 40 and 60 minutes at all dilutions 1:100, 1:200, 1:400, 1:800
[1] = test system: Escherichia coli
Method: (§1) The antimicrobial properties of the 4,5-bis(4-methoxyphenyl)-1-hexyl-2-(4-nitrophenyl)-1H-imidazole was studied by the method of agar dilution. Test solutions of each compound was prepared in concentration of 1% using dimethylformamide as a solvent then they were diluted in physiological solution to obtain the final experimental dilutions 1:100, 1:200, 1:400, 1:800. The effect of these substances were compared with furacillin in a controlled study. The testing microbes used were gram positive bacteria Staphylococcus aureus, gram negative bacteria Pseudomonas aeruginosa and Escherichia coli and Candida albicans fungi were taken. The experiments used for this survey were meat-pentonlu agar (EPA) for cultivation of bacteria and Saburo environment for fungi. Each experiment used 1 ml of test solution on each plate 500 min. Add 2 drops of emulsified with microbes feel. All experimental samples were taken from the agar after 10, 20, 40, 60 minutes in the environment on the basis of Patrk planted. Bacteria were cultivated at a temperature of 37° C. for 1 day and the mushroom was kept in a thermostat for […] at a temperature of 28° C. Then results were checked.

[2] = test system: Candida albicans
Method: as §1

[3] = test system: Pseudomonas aeruginosa
Method: as §1

[4] = test system: Staphylococcus aureus
Method: as §1

Measured: inhibition activity (in words)

CCCCCCn1c(-c2ccc(OC)c(OC)c2)nc(-c2ccc(Br)cc2)c1-c1ccc(Br)cc1 [4,5-bis(4-bromophenyl)-1-hexyl-2-(3,4-dimethoxyphenyl)-1H-imidazole]
highest inhibition activity: all assays above
